Legend:
Experiment in all cases: cells
Format in all cases: functional, cell-based
Details in all cases: Homo sapiens
[1] = tested on: NCI-H1299;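 note: growth inhibition of human NCI-H1299 cells, read out by a cell viability assay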
Description: SANGER: Inhibition of human NCI-H1299 cell growth in a cell viability assay.

[2] = tested on: BB49-HNC;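 note: cell viability assay read-out, reported as inhibition of BB49-HNC cell growth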
Description: SANGER: Inhibition of human BB49-HNC cell growth in a cell viability assay.

[3] = tested on: HT
Description: SANGER: Inhibition of human HT cell growth in a cell viability assay.

[4] = tested on: SK-N-DZ;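 note: growth inhibition of the cancer cell line, read out through a viability assay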
Description: SANGER: Inhibition of human SK-N-DZ cell growth in a cell viability assay.

[5] = tested on: LB2518-MEL;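 note: growth inhibition of human LB2518-MEL cells, measured with a cell viability assay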
Description: SANGER: Inhibition of human LB2518-MEL cell growth in a cell viability assay.

[6] = tested on: NCI-H1092;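 note: cell growth inhibition measured with a cell viability assay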
Description: SANGER: Inhibition of human NCI-H1092 cell growth in a cell viability assay.

[7] = tested on: MLMA;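 note: growth inhibition of MLMA cells (human), determined through a cell viability readout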
Description: SANGER: Inhibition of human MLMA cell growth in a cell viability assay.

[8] = tested on: NCI-H446;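 note: growth inhibition of NCI-H446 cells determined by a cell viability assay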
Description: SANGER: Inhibition of human NCI-H446 cell growth in a cell viability assay.

[9] = tested on: TGBC1TKB;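 note: growth inhibition of TGBC1TKB cells, read out by a cell viability assay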
Description: SANGER: Inhibition of human TGBC1TKB cell growth in a cell viability assay.

[10] = tested on: RCC10RGB;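 note: growth inhibition of human RCC10RGB cells, read out by a cell viability assay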
Description: SANGER: Inhibition of human RCC10RGB cell growth in a cell viability assay.

[11] = tested on: DJM-1;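 note: growth inhibition of human DJM-1 cells, read out by a cell viability assay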
Description: SANGER: Inhibition of human DJM-1 cell growth in a cell viability assay.

[12] = tested on: JVM-3;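 note: growth inhibition of human JVM-3 cells, read out with a cell viability assay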
Description: SANGER: Inhibition of human JVM-3 cell growth in a cell viability assay.

[13] = tested on: ES3;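 note: growth inhibition of ES3 cells, read out with a cell viability assay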
Description: SANGER: Inhibition of human ES3 cell growth in a cell viability assay.

[14] = tested on: EW-11;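 note: growth inhibition of human EW-11 cells, measured with a cell viability assay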
Description: SANGER: Inhibition of human EW-11 cell growth in a cell viability assay.

[15] = tested on: no-10;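 note: growth inhibition of no-10 cells, read out with a cell viability assay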
Description: SANGER: Inhibition of human no-10 cell growth in a cell viability assay.

[16] = tested on: EKVX;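 note: growth inhibition of human EKVX cells, read out with a cell viability assay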
Description: SANGER: Inhibition of human EKVX cell growth in a cell viability assay.

[17] = tested on: SK-UT-1;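 note: growth inhibition of SK-UT-1 cells, measured by a cell viability assay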
Description: SANGER: Inhibition of human SK-UT-1 cell growth in a cell viability assay.

[18] = tested on: TE-10;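 note: growth inhibition of TE-10 cells, measured by a cell viability assay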
Description: SANGER: Inhibition of human TE-10 cell growth in a cell viability assay.

[19] = tested on: KINGS-1;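 note: cell viability assay measuring suppression of KINGS-1 cell growth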
Description: SANGER: Inhibition of human KINGS-1 cell growth in a cell viability assay.

[20] = tested on: HAL-01;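 note: growth inhibition of human HAL-01 cells, read out with a cell viability assay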
Description: SANGER: Inhibition of human HAL-01 cell growth in a cell viability assay.

[21] = tested on: ONS-76;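 note: growth inhibition of human ONS-76 cells, read out with a cell viability assay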
Description: SANGER: Inhibition of human ONS-76 cell growth in a cell viability assay.

[22] = tested on: L-363
Description: SANGER: Inhibition of human L-363 cell growth in a cell viability assay.

[23] = tested on: COLO-320-HSR;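 note: growth inhibition of COLO-320-HSR cells, determined with a cell viability assay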
Description: SANGER: Inhibition of human COLO-320-HSR cell growth in a cell viability assay.

[24] = tested on: CGTH-W-1;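 note: growth inhibition of human CGTH-W-1 cells measured by cell viability assay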
Description: SANGER: Inhibition of human CGTH-W-1 cell growth in a cell viability assay.

[25] = tested on: A388;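 note: growth inhibition of human A388 cells, read out with a cell viability assay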
Description: SANGER: Inhibition of human A388 cell growth in a cell viability assay.

[26] = tested on: A101D;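 note: growth inhibition of the cell line, measured with a viability assay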
Description: SANGER: Inhibition of human A101D cell growth in a cell viability assay.

[27] = tested on: COLO-824
Description: SANGER: Inhibition of human COLO-824 cell growth in a cell viability assay.

[28] = tested on: MOLT-4;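 note: growth inhibition of MOLT-4 cells, determined with a cell viability readout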
Description: SANGER: Inhibition of human MOLT-4 cell growth in a cell viability assay.

[29] = tested on: DMS-114
[30] = tested on: DSH1;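 note: growth inhibition of human DSH1 cells, measured with a cell viability readout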
Description: SANGER: Inhibition of human DSH1 cell growth in a cell viability assay.

[31] = tested on: CCRF-CEM;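 note: inhibition of CCRF-CEM cell growth, measured by a cell viability assay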
Description: SANGER: Inhibition of human CCRF-CEM cell growth in a cell viability assay.

[32] = tested on: ES4;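 note: growth inhibition of human ES4 cells, read out by a cell viability assay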
Description: SANGER: Inhibition of human ES4 cell growth in a cell viability assay.

[33] = tested on: L-428
Description: SANGER: Inhibition of human L-428 cell growth in a cell viability assay.

[34] = tested on: KP-N-YS;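 note: cell viability assay measuring inhibition of cell line growth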
Description: SANGER: Inhibition of human KP-N-YS cell growth in a cell viability assay.

[35] = tested on: SK-MEL-1;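 note: growth inhibition of human SK-MEL-1 cells, read out by a cell viability assay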
Description: SANGER: Inhibition of human SK-MEL-1 cell growth in a cell viability assay.

[36] = tested on: HH
Description: SANGER: Inhibition of human HH cell growth in a cell viability assay.

[37] = tested on: TE-5;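 note: inhibition of cell growth, read out by a cell viability assay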
Description: SANGER: Inhibition of human TE-5 cell growth in a cell viability assay.

[38] = tested on: LAMA-84;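 note: growth inhibition of LAMA-84 cells, read out with a cell viability assay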
Description: SANGER: Inhibition of human LAMA-84 cell growth in a cell viability assay.

[39] = tested on: NCI-H82;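 note: growth inhibition of NCI-H82 cells, measured with a cell viability readout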
Description: SANGER: Inhibition of human NCI-H82 cell growth in a cell viability assay.

[40] = tested on: HEL;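 note: growth inhibition of HEL cells, read out with a cell viability assay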
Description: SANGER: Inhibition of human HEL cell growth in a cell viability assay.

[41] = tested on: TE-9;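 note: cell growth inhibition, measured with a cell viability readout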
Description: SANGER: Inhibition of human TE-9 cell growth in a cell viability assay.

[42] = tested on: SK-NEP-1;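 note: growth inhibition of human SK-NEP-1 cells, read out by a cell viability assay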
Description: SANGER: Inhibition of human SK-NEP-1 cell growth in a cell viability assay.

[43] = tested on: OCI-AML2;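 note: growth inhibition of OCI-AML2 cells, read out with a cell viability assay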
Description: SANGER: Inhibition of human OCI-AML2 cell growth in a cell viability assay.

[44] = tested on: LNCaP-Clone-FGC
Description: SANGER: Inhibition of human LNCaP-Clone-FGC cell growth in a cell viability assay.

[45] = tested on: GT3TKB;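 note: growth inhibition of the cell line, read out with a cell viability assay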
Description: SANGER: Inhibition of human GT3TKB cell growth in a cell viability assay.

[46] = tested on: RKO;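 note: growth inhibition of human RKO cells, read out with a cell viability assay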
Description: SANGER: Inhibition of human RKO cell growth in a cell viability assay.

[47] = tested on: NB10;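 note: growth inhibition of NB10 cells, read out by a cell viability assay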
Description: SANGER: Inhibition of human NB10 cell growth in a cell viability assay.

[48] = tested on: NOS-1;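 note: growth inhibition of the human NOS-1 cell line, read out with a cell viability assay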
Description: SANGER: Inhibition of human NOS-1 cell growth in a cell viability assay.

[49] = tested on: KALS-1;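 note: growth inhibition of KALS-1 cells, determined with a cell viability assay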
Description: SANGER: Inhibition of human KALS-1 cell growth in a cell viability assay.

[50] = tested on: OVCAR-4;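 note: growth inhibition of human OVCAR-4 cells, measured with a cell viability assay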
Description: SANGER: Inhibition of human OVCAR-4 cell growth in a cell viability assay.

[51] = tested on: EW-13;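 note: growth inhibition of EW-13 cells, read out with a cell viability assay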
Description: SANGER: Inhibition of human EW-13 cell growth in a cell viability assay.

[52] = tested on: UACC-257
Description: SANGER: Inhibition of human UACC-257 cell growth in a cell viability assay.

[53] = tested on: U-266
Description: SANGER: Inhibition of human U-266 cell growth in a cell viability assay.

[54] = tested on: NCI-H747;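 note: growth inhibition of human NCI-H747 cells, read out by a cell viability assay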
Description: SANGER: Inhibition of human NCI-H747 cell growth in a cell viability assay.

[55] = tested on: TE-6;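 note: growth inhibition of TE-6 cells, read out with a cell viability assay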
Description: SANGER: Inhibition of human TE-6 cell growth in a cell viability assay.

[56] = tested on: HCC1187;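 note: growth inhibition of HCC1187 cells, read out with a cell viability assay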
Description: SANGER: Inhibition of human HCC1187 cell growth in a cell viability assay.

[57] = tested on: NCI-H1304;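 note: growth inhibition of the cancer cell line, measured in a cell viability assay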
Description: SANGER: Inhibition of human NCI-H1304 cell growth in a cell viability assay.

[58] = tested on: SW982;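 note: growth inhibition of SW982 cells, read out with a cell viability assay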
Description: SANGER: Inhibition of human SW982 cell growth in a cell viability assay.

[59] = tested on: K562
Description: SANGER: Inhibition of human K-562 cell growth in a cell viability assay.

[60] = tested on: HD-MY-Z;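 note: growth inhibition of HD-MY-Z cells, read out with a cell viability assay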
Description: SANGER: Inhibition of human HD-MY-Z cell growth in a cell viability assay.

[61] = tested on: MFM-223
Description: SANGER: Inhibition of human MFM-223 cell growth in a cell viability assay.

[62] = tested on: DEL
Description: SANGER: Inhibition of human DEL cell growth in a cell viability assay.

[63] = tested on: COLO-800
Description: SANGER: Inhibition of human COLO-800 cell growth in a cell viability assay.

[64] = tested on: MZ2-MEL
Description: SANGER: Inhibition of human MZ2-MEL cell growth in a cell viability assay.

[65] = tested on: KARPAS-45
Description: SANGER: Inhibition of human KARPAS-45 cell growth in a cell viability assay.

Structure (SMILES): O=c1cc(N2CCOCC2)oc2c(-c3cccc4c3sc3ccccc34)cccc12
- IC50 [1]: > 2000 nM
- IC50 [2]: > 2000 nM
- IC50 [3]: > 2000 nM
- IC50 [4]: > 2000 nM
- IC50 [5]: > 2000 nM
- IC50 [6]: > 2000 nM
- IC50 [7]: > 2000 nM
- IC50 [8]: > 2000 nM
- IC50 [9]: > 2000 nM
- IC50 [10]: > 2000 nM
- IC50 [11]: > 2000 nM
- IC50 [12]: > 2000 nM
- IC50 [13]: > 2000 nM
- IC50 [14]: > 2000 nM
- IC50 [15]: > 2000 nM
- IC50 [16]: > 2000 nM
- IC50 [17]: > 2000 nM
- IC50 [18]: > 2000 nM
- IC50 [19]: > 2000 nM
- IC50 [20]: > 2000 nM
- IC50 [21]: > 2000 nM
- IC50 [22]: > 2000 nM
- IC50 [23]: > 2000 nM
- IC50 [24]: > 2000 nM
- IC50 [25]: > 2000 nM
- IC50 [26]: > 2000 nM
- IC50 [27]: > 2000 nM
- IC50 [28]: > 2000 nM
- IC50 [29]: > 2000 nM
- IC50 [30]: > 2000 nM
- IC50 [31]: > 2000 nM
- IC50 [32]: > 2000 nM
- IC50 [33]: > 2000 nM
- IC50 [34]: 1140 nM
- IC50 [35]: 1790 nM
- IC50 [36]: 1180 nM
- IC50 [37]: > 2000 nM
- IC50 [38]: 988 nM
- IC50 [39]: > 2000 nM
- IC50 [40]: > 2000 nM
- IC50 [41]: > 2000 nM
- IC50 [42]: > 2000 nM
- IC50 [43]: > 2000 nM
- IC50 [44]: > 2000 nM
- IC50 [45]: > 2000 nM
- IC50 [46]: > 2000 nM
- IC50 [47]: > 2000 nM
- IC50 [48]: > 2000 nM
- IC50 [49]: > 2000 nM
- IC50 [50]: > 2000 nM
- IC50 [51]: > 2000 nM
- IC50 [52]: > 2000 nM
- IC50 [53]: > 2000 nM
- IC50 [54]: > 2000 nM
- IC50 [55]: > 2000 nM
- IC50 [56]: > 2000 nM
- IC50 [57]: > 2000 nM
- IC50 [58]: > 2000 nM
- IC50 [59]: > 2000 nM
- IC50 [60]: > 2000 nM
- IC50 [61]: > 2000 nM
- IC50 [62]: > 2000 nM
- IC50 [63]: > 2000 nM
- IC50 [64]: > 2000 nM

Structure (SMILES): Cn1c(=O)n(-c2ccc(C(C)(C)C#N)cc2)c2c3cc(-c4cnc5ccccc5c4)ccc3ncc21 [DACTOLISIB]
- IC50 [1]: 150 nM
- IC50 [2]: 174 nM
- IC50 [3]: 41 nM
- IC50 [4]: > 2000 nM
- IC50 [5]: 157 nM
- IC50 [6]: 145 nM
- IC50 [7]: 137 nM
- IC50 [8]: 95.1 nM
- IC50 [9]: 23.1 nM
- IC50 [10]: 224 nM
- IC50 [11]: 340 nM
- IC50 [12]: 30.8 nM
- IC50 [13]: 25.2 nM
- IC50 [14]: 96.9 nM
- IC50 [15]: 201 nM
- IC50 [16]: 101 nM
- IC50 [18]: 407 nM
- IC50 [19]: 82.3 nM
- IC50 [20]: 55.8 nM
- IC50 [21]: 29.1 nM
- IC50 [22]: 10.7 nM
- IC50 [23]: 403 nM
- IC50 [24]: 20.6 nM
- IC50 [25]: 250 nM
- IC50 [26]: 39 nM
- IC50 [27]: 689 nM
- IC50 [28]: 25.1 nM
- IC50 [29]: 125 nM
- IC50 [30]: 407 nM
- IC50 [31]: > 2000 nM
- IC50 [32]: 21.1 nM
- IC50 [33]: 275 nM
- IC50 [34]: 185 nM
- IC50 [35]: > 2000 nM
- IC50 [36]: 15.7 nM
- IC50 [37]: 46.8 nM
- IC50 [38]: 35.9 nM
- IC50 [39]: > 2000 nM
- IC50 [40]: 109 nM
- IC50 [41]: 1130 nM
- IC50 [42]: 34.2 nM
- IC50 [43]: 82.6 nM
- IC50 [44]: 37.6 nM
- IC50 [45]: 118 nM
- IC50 [46]: 38.3 nM
- IC50 [47]: 240 nM
- IC50 [48]: 30.1 nM
- IC50 [49]: 82.5 nM
- IC50 [50]: 73.4 nM
- IC50 [51]: 95.8 nM
- IC50 [52]: 214 nM
- IC50 [53]: 206 nM
- IC50 [54]: 119 nM
- IC50 [55]: 220 nM
- IC50 [56]: 576 nM
- IC50 [57]: 1650 nM
- IC50 [58]: 49.9 nM
- IC50 [65]: 13.5 nM
- IC50 [59]: > 2000 nM
- IC50 [60]: 44.9 nM
- IC50 [61]: 132 nM
- IC50 [62]: 20.5 nM
- IC50 [63]: 32.9 nM
- IC50 [64]: 39.7 nM
